Consider 16 molecules from paper PMC11191101, “Investigation of Newly Synthesized Fluorinated Isatin-Hydrazones by In Vitro Antiproliferative Activity, Molecular Docking, ADME Analysis, and e-Pharmacophore Modeling” (ACS Omega, 2024).

pIC50: −log10 of the molar value. Entries after “also recorded” stand apart in the source; their conditions may differ.

Data set [1] concerns A549 human lung epithelial carcinoma cell line. Nature of the data set: MTT cytotoxicity, A549 lung cancer cells. It is filed as cell-based. The conditions noted are these: for pIC50: MTT, 72 h, 200, 100, 50, 25 μM tested; for cytotoxic effect on A549 lung cancer cell line (in words) / selectivity index (SI), HEK-293T IC50 divided by A549 IC50: 72 h; for cytotoxic effect on A549 lung cancer cell line (in words): up to 200 μM; for selectivity index (SI), HEK-293T IC50 divided by A549 IC50: IC50 >200 taken as 200. How it is done: (§1) Compounds (1–15) were screened in two cancer and normal cell lines at concentrations of 200, 100, 50, and 25 μM for 72 h.
(§2) This section of the study was performed following the procedure described in our previous study.[51],[52] The human lung cancer cell line (A549; ATCC CCL-185), human liver cancer cell line (HepG2; ATCC HB-8065), and human normal embryonic kidney cell line (HEK-293T) were cultured in high-glucose Dulbecco’s modified Eagle’s medium supplemented with 10% fetal bovine serum and 1% glutamax. Cells were seeded at a density of 5 × 10^3 cells/well in sterile 96-well plates and incubated for 24 h. Following incubation, the cells were exposed to the prepared compounds (1–15) and cisplatin at 200, 100, 50, and 25 μM concentrations for 72 h. After the incubation period, the medium in the plates was carefully removed and the prepared MTT solution was added to each well of the plates. The plates were incubated for 2 h in an incubator. Absorbance was measured using an Epoch 2 ELISA plate reader at 590 nm. The IC50 values were calculated using GraphPad Prism Software version 5.

Data set [2] concerns HEK-293T human normal embryonic kidney cell line. Nature of the data set: MTT toxicity, HEK-293T normal cells. It is filed as cell-based. The conditions noted are these: 72 h; for pIC50: MTT, normal cell line, 200, 100, 50, 25 μM tested; for toxic effect on healthy HEK-293T cells (in words): up to 200 μM. How it is done: as §1, §2
Data set [3] relates to HepG2 human liver epithelial carcinoma cell line. Nature of the data set: MTT cytotoxicity, HepG2 liver cancer cells. It is filed as cell-based. The conditions noted are these: for cytotoxic effect on HepG2 liver cancer cell line (in words) / selectivity index (SI), HEK-293T IC50 / HepG2 IC50: 72 h; for cytotoxic effect on HepG2 liver cancer cell line (in words): up to 200 μM; for selectivity index (SI), HEK-293T IC50 / HepG2 IC50: IC50 >200 taken as 200; for pIC50: Homo sapiens, HepG2, MTT, 72 h, 200, 100, 50, 25 μM tested. How it is done:
as §1, §2

A word on the pIC50: it is the IC50 on a negative log10 scale, so that one unit is a factor of ten. High values mean a low IC50, low ones a high IC50. Take `N.N.[Cl][Pt][Cl]` [cisplatin, reference compound]: the negative-log IC50 (pIC50) in data set [1] is 5.38; in data set [2], 5.13.

What is called melting point is the temperature, or range, at which the solid turns liquid. On to `O=C1Nc2ccc(F)cc2C1=NN=Cc1ccc(F)cc1` [Compound 5, 5-Fluoro-3-{[4-fluorobenzylidene]hydrazinylidene}indolin-2-one], for which the melting point is 246 to 248 °C. Moreover, the “cytotoxic effect on A549 lung cancer cell line (in words)” value in data set [1] is listed as “not active”. This molecule also showed a negative logarithm of the IC50 (pIC50) in data set [1] (Homo sapiens, A549) of under 3.70. Further, in data set [3], the “cytotoxic effect on HepG2 liver cancer cell line (in words)” value was “cytotoxic effects”; the “selectivity index (SI), HEK-293T IC50 / HepG2 IC50” value is listed as 1.78; the negative logarithm of the IC50 (pIC50) was 3.97. The “toxic effect on healthy HEK-293T cells (in words)” value in data set [2] is reported as “did not show high toxicity”. The negative-log IC50 (pIC50) in data set [2] (Homo sapiens, HEK-293T) is 3.71.

For `COc1cc(C=NN=C2C(=O)Nc3ccc(F)cc32)ccc1O` [Compound 15, 5-Fluoro-3-{[4-hydroxy-3-methoxybenzylidene]hydrazinylidene}indolin-2-one], the melting point was 232 to 233 °C. The “cytotoxic effect on A549 lung cancer cell line (in words)” value in data set [1] was “not active”. The molecule also had a pIC50 in data set [1] (Homo sapiens, A549) of under 3.70. This molecule also showed a negative-log IC50 (pIC50) in data set [3] of under 3.70. In data set [2] (Homo sapiens, HEK-293T), the negative-log IC50 (pIC50) is under 3.70.

`O=C1Nc2ccc(F)cc2C1=NN=Cc1ccccc1` [Compound 2, 5-Fluoro-3-{[benzylidene]hydrazinylidene}indolin-2-one]: the melting point was in the range of 229 to 230 °C. Further, the “cytotoxic effect on A549 lung cancer cell line (in words)” value in data set [1] is reported as “not active”. For the same molecule, the pIC50 in data set [1] (Homo sapiens, A549) was under 3.70. In data set [3], the pIC50 is under 3.70. Besides, in data set [2] (Homo sapiens, HEK-293T), the negative logarithm of the IC50 (pIC50) was under 3.70.

Consider `COc1ccc(C=NN=C2C(=O)Nc3ccc(F)cc32)c(O)c1` [Compound 13, 5-Fluoro-3-{[2-hydroxy-4-methoxybenzylidene]hydrazinylidene}indolin-2-one], for which the melting point is 257 to 258 °C. The “cytotoxic effect on A549 lung cancer cell line (in words)” value in data set [1] is on record as “not active”. Moreover, the negative-log IC50 (pIC50) in data set [1] (Homo sapiens, A549) was under 3.70. The pIC50 in data set [3] is under 3.70. Moreover, the pIC50 in data set [2] (Homo sapiens, HEK-293T) is under 3.70.

With `NN=C1C(=O)Nc2ccc(F)cc21` [Compound 1, 5-Fluoro-3-hydrazonoindolin-2-one], the melting point was in the range of 203 to 204 °C. In addition, the “cytotoxic effect on A549 lung cancer cell line (in words)” value in data set [1] was “not active”. Besides, the negative-log IC50 (pIC50) in data set [1] (Homo sapiens, A549) was under 3.70. In addition, the pIC50 in data set [3] is under 3.70. This molecule also showed a pIC50 in data set [2] (Homo sapiens, HEK-293T) of under 3.70.

Turning to `O=C1Nc2ccc(F)cc2C1=NN=Cc1ccc(Br)cc1` [Compound 3, 5-Fluoro-3-{[4-bromobenzylidene]hydrazinylidene}indolin-2-one], the melting point fell in the range of 262 to 263 °C. For the same molecule, in data set [1], the “cytotoxic effect on A549 lung cancer cell line (in words)” value was “cytotoxic effect” and the “selectivity index (SI), HEK-293T IC50 divided by A549 IC50” value was found to be 0.13. Also, the negative-log IC50 (pIC50) in data set [1] (Homo sapiens, A549) was 3.73. The same molecule showed a pIC50 in data set [3] of under 3.70. In addition, in data set [2], the “toxic effect on healthy HEK-293T cells (in words)” value is given as “highly toxic effects”. In data set [2] (Homo sapiens, HEK-293T), this molecule gave a pIC50 of 4.60.

`O=C1Nc2ccc(F)cc2C1=NN=Cc1cccc(O)c1` [Compound 10, 5-Fluoro-3-{[3-hydroxybenzylidene]hydrazinylidene}indolin-2-one] gave a melting point of 260 to 261 °C. Further, in data set [1], the “cytotoxic effect on A549 lung cancer cell line (in words)” value is reported as “cytotoxic effect” and the “selectivity index (SI), HEK-293T IC50 divided by A549 IC50” value turned out to be 0.48. This molecule also gave a pIC50 in data set [1] (Homo sapiens, A549) of 3.74. In addition, in data set [3], the “cytotoxic effect on HepG2 liver cancer cell line (in words)” value was “cytotoxic effects”; the “selectivity index (SI), HEK-293T IC50 / HepG2 IC50” value was 0.52; the pIC50 is 3.78. The same molecule had a pIC50 in data set [2] (Homo sapiens, HEK-293T) of 4.06.

With `O=C1Nc2ccc(F)cc2C1=NN=Cc1ccc(O)cc1` [Compound 11, 5-Fluoro-3-{[4-hydroxybenzylidene]hydrazinylidene}indolin-2-one], the melting point was 275 to 276 °C. Besides, the “cytotoxic effect on A549 lung cancer cell line (in words)” value in data set [1] was “not active”. This molecule had a negative logarithm of the IC50 (pIC50) in data set [1] (Homo sapiens, A549) of under 3.70. The same molecule gave a pIC50 in data set [3] of under 3.70. Besides, the negative logarithm of the IC50 (pIC50) in data set [2] (Homo sapiens, HEK-293T) was under 3.70.

With `O=C1Nc2ccc(F)cc2C1=NN=Cc1ccc([N+](=O)[O-])cc1` [Compound 8, 5-Fluoro-3-{[4-nitrobenzylidene]hydrazinylidene}indolin-2-one], the melting point was in the range of 249 to 251 °C. Besides, in data set [1], the “cytotoxic effect on A549 lung cancer cell line (in words)” value was “cytotoxic effect” and the “selectivity index (SI), HEK-293T IC50 divided by A549 IC50” value amounted to 0.14. The molecule further had a pIC50 in data set [1] (Homo sapiens, A549) of 4.37. For the same molecule, in data set [3], the “cytotoxic effect on HepG2 liver cancer cell line (in words)” value is listed as “cytotoxic effects”; the “selectivity index (SI), HEK-293T IC50 / HepG2 IC50” value is on record as 0.12; the negative logarithm of the IC50 (pIC50) was 4.31. In data set [2] (Homo sapiens, HEK-293T), this molecule gave a pIC50 of 5.22.

Regarding `COc1ccc(C=NN=C2C(=O)Nc3ccc(F)cc32)cc1O` [Compound 14, 5-Fluoro-3-{[3-hydroxy-4-methoxybenzylidene]hydrazinylidene}indolin-2-one], the melting point lay in the range of 263 to 264 °C. In addition, in data set [1], the “cytotoxic effect on A549 lung cancer cell line (in words)” value is on record as “cytotoxic effect” and the “selectivity index (SI), HEK-293T IC50 divided by A549 IC50” value is recorded as over 1.73. Also, the pIC50 in data set [1] (Homo sapiens, A549) is 3.94. The same molecule gave a negative-log IC50 (pIC50) in data set [3] of under 3.70. Further, the negative-log IC50 (pIC50) in data set [2] (Homo sapiens, HEK-293T) is under 3.70.

For the molecule `COc1ccc(C=NN=C2C(=O)Nc3ccc(F)cc32)cc1` [Compound 7, 5-Fluoro-3-{[4-methoxybenzylidene]hydrazinylidene}indolin-2-one], the melting point was 247 to 248 °C. For the same molecule, the “cytotoxic effect on A549 lung cancer cell line (in words)” value in data set [1] was “not active”. The same molecule showed a pIC50 in data set [1] (Homo sapiens, A549) of under 3.70. In data set [3], the “cytotoxic effect on HepG2 liver cancer cell line (in words)” value was “cytotoxic effects”; the “selectivity index (SI), HEK-293T IC50 / HepG2 IC50” value amounted to 1.29; the negative-log IC50 (pIC50) was 3.82. This molecule also had a pIC50 in data set [2] (Homo sapiens, HEK-293T) of 3.70.

In turn, `O=C1Nc2ccc(F)cc2C1=NN=Cc1ccccc1O` [Compound 9, 5-Fluoro-3-{[2-hydroxybenzylidene]hydrazinylidene}indolin-2-one] returned a melting point of 252 to 253 °C. The “cytotoxic effect on A549 lung cancer cell line (in words)” value in data set [1] is recorded as “not active”. The molecule also showed a negative logarithm of the IC50 (pIC50) in data set [1] (Homo sapiens, A549) of under 3.70. Besides, the pIC50 in data set [3] was under 3.70. Moreover, in data set [2], the “toxic effect on healthy HEK-293T cells (in words)” value is given as “toxic effect”. The molecule further gave a pIC50 in data set [2] (Homo sapiens, HEK-293T) of 3.85.

As to `Cc1ccc(C=NN=C2C(=O)Nc3ccc(F)cc32)cc1` [Compound 6, 5-Fluoro-3-{[4-methylbenzylidene]hydrazinylidene}indolin-2-one], the melting point was 241 to 242 °C. The “cytotoxic effect on A549 lung cancer cell line (in words)” value in data set [1] is given as “not active”. Moreover, the negative logarithm of the IC50 (pIC50) in data set [1] (Homo sapiens, A549) was under 3.70. Besides, the pIC50 in data set [3] was under 3.70. The “toxic effect on healthy HEK-293T cells (in words)” value in data set [2] is “toxic effect”. Moreover, the negative-log IC50 (pIC50) in data set [2] (Homo sapiens, HEK-293T) is 3.86.

The molecule `COc1cccc(C=NN=C2C(=O)Nc3ccc(F)cc32)c1O` [Compound 12, 5-Fluoro-3-{[2-hydroxy-3-methoxybenzylidene]hydrazinylidene}indolin-2-one] yielded a melting point of 244 to 246 °C. For the same molecule, in data set [1], the “cytotoxic effect on A549 lung cancer cell line (in words)” value is “cytotoxic effect” and the “selectivity index (SI), HEK-293T IC50 divided by A549 IC50” value is over 1.33. In addition, the negative-log IC50 (pIC50) in data set [1] (Homo sapiens, A549) is 3.82. In data set [3], this molecule gave a negative-log IC50 (pIC50) of under 3.70. For the same molecule, in data set [2] (Homo sapiens, HEK-293T), the negative-log IC50 (pIC50) was under 3.70.

In turn, `O=C1Nc2ccc(F)cc2C1=NN=Cc1ccc(Cl)cc1` [Compound 4, 5-Fluoro-3-{[4-chlorobenzylidene]hydrazinylidene}indolin-2-one] came in with a melting point of 257 to 258 °C. Further, the “cytotoxic effect on A549 lung cancer cell line (in words)” value in data set [1] is reported as “not active”. In addition, the negative-log IC50 (pIC50) in data set [1] (Homo sapiens, A549) was under 3.70. Also, the pIC50 in data set [3] is under 3.70. Further, in data set [2], the “toxic effect on healthy HEK-293T cells (in words)” value is on record as “toxic effect; also recorded: highly toxic effects”. In data set [2] (Homo sapiens, HEK-293T), the negative logarithm of the IC50 (pIC50) is 4.53.
